Reference: ChEMBL document CHEMBL1201862, “PubChem BioAssay data set” (2004)
Calls of active or inactive are those of the source.

Tests used:
Vero [1] = assay: cells; assay type: functional, cell-based; settings: Chlorocebus sabaeus
Vero [2] = assay: cells; assay type: functional; settings: Chlorocebus sabaeus
[3] = target: Intestinal-type alkaline phosphatase (Mus musculus, UniProt P24822); assay: PubChem AID 488785; assay type: functional
[4] = target: T1, Alkaline phosphatase, tissue-nonspecific isozyme (Homo sapiens, UniProt P05186); assay: TNAP enzyme inhibition by screening hits, dose response, selectivity assay for mouse IAP inhibitor project, biochemical, human TNAP, uHTS hits (AID 488906); assay type: functional
T1 sequence (P05186 whole entry): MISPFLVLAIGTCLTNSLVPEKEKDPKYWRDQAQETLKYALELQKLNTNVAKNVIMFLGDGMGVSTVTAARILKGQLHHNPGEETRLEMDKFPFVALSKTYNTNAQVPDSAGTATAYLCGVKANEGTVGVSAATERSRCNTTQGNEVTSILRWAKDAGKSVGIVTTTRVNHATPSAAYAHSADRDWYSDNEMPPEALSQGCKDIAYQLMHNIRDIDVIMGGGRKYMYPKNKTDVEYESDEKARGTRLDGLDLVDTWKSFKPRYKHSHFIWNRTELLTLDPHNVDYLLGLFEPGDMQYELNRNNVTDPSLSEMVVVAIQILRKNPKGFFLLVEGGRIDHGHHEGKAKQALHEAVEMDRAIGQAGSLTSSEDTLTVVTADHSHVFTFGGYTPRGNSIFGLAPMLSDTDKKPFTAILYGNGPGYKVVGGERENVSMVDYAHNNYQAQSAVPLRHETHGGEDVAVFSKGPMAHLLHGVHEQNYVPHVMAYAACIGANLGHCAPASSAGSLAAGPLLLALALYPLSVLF

[5] = target: Intestinal-type alkaline phosphatase (Homo sapiens, UniProt P09923); assay: inhibition of human intestinal alkaline phosphatase – biochemical, dose response (AID 488876); assay type: functional
Intestinal-type alkaline phosphatase (Homo sapiens, UniProt P09923), sequence (P09923 whole entry): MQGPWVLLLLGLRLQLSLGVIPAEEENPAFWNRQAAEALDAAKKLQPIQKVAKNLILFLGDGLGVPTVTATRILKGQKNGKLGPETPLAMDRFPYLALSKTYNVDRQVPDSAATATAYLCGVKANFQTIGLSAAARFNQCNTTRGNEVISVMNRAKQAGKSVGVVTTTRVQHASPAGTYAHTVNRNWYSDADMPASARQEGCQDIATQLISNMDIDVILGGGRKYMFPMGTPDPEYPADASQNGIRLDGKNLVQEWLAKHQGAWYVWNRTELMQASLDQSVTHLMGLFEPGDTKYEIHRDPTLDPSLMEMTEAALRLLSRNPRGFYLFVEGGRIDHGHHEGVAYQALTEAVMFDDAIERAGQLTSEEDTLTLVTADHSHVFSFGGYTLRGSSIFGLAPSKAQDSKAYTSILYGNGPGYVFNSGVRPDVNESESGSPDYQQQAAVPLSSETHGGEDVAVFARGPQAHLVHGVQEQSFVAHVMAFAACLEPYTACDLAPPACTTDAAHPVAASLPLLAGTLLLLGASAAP

Albumin = Albumin (Bos taurus, UniProt P02769); assay: Counterscreen for inhibitors of T-cell receptor (TCR)-CD3 interaction: Fluorescence-based biochemical high throughput dose response assay to identify inhibitors of T-cell receptor (TCR)-CD3 interaction using a TAMRA-labeled BSA probe.; assay type: functional
Albumin, sequence (P02769 whole entry): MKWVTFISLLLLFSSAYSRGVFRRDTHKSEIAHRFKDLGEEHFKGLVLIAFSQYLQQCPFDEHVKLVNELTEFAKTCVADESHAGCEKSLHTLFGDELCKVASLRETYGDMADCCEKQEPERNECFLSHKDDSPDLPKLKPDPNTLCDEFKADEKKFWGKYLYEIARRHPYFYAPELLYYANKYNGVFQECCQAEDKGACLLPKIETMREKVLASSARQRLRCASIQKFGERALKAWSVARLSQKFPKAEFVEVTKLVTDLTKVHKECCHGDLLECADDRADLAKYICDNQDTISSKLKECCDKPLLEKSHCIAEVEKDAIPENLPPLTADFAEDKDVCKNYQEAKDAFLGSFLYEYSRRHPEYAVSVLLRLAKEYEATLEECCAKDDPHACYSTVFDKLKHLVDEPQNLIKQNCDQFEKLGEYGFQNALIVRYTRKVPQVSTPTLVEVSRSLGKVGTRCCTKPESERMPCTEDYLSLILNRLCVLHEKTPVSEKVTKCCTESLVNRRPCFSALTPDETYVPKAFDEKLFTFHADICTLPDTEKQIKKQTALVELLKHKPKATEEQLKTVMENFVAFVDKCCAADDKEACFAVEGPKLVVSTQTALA

[6] = target: T2, E3 ubiquitin-protein ligase XIAP (Homo sapiens, UniProt P98170); assay: Counter Screen using XIAP-Bir3 for Chemical Antagonists of Bir1/2 domains of IAP-family anti-apoptotic proteins. [Related pubchem assays (depositor defined):AID1018, AID1449, AID1514, AID1638, AID1749, AID1750, AID488957, AID488963]
T2 sequence (P98170 whole entry): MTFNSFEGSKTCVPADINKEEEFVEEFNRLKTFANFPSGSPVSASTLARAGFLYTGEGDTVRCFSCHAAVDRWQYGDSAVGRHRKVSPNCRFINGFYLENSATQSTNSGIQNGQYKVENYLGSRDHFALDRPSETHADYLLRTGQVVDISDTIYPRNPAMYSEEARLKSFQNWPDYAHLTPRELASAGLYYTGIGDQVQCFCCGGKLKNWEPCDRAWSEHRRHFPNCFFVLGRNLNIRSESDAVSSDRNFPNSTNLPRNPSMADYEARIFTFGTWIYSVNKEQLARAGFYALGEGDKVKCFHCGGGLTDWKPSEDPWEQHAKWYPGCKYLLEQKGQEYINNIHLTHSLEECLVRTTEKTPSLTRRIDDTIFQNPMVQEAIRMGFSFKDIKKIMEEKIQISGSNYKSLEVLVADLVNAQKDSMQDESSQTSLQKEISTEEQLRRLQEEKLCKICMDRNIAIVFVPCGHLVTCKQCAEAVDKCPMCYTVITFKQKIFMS

[7] = target: T2, E3 ubiquitin-protein ligase XIAP; assay: XIAP antagonists, biochemical, IAP family, fluorescence polarization (AID 1018); assay type: functional
H9c2 = assay: cells; assay type: functional, cell-based; settings: Rattus norvegicus, H9c2, Myocardium;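 note: confirmatory concentration-response retest of ultra-high-throughput screening hits for modulation of myocardial damage; cell death induced by hydrogen peroxide oxidative stress; compound pretreatment for 60 min then peroxide exposure for 2 h; potency is for protecting the cells against peroxide damage rather than for killing them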
[8] = target: T3, Probable nicotinate-nucleotide adenylyltransferase (Staphylococcus aureus (strain N315), UniProt P65502); assay type: functional, Staphylococcus aureus subsp. aureus N315;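 for IC50 Mean: confirmatory dose-response retesting of NadD inhibitor hits first found in an ultra-high-throughput screen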
T3 sequence (P65502 whole entry): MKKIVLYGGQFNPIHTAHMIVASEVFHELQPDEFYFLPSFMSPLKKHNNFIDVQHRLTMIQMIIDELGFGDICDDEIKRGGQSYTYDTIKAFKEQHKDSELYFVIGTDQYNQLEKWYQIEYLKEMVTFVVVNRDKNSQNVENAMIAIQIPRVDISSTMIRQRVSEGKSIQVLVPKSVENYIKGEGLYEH

[9] = target: T3, Probable nicotinate-nucleotide adenylyltransferase; assay type: functional, Staphylococcus aureus subsp. aureus N315; settings: read-out: IC50_Mean
Coagulation factor XII = target: T4, Coagulation factor XII (Homo sapiens, UniProt P00748); assay type: functional;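 note: activated factor XIIa alpha cleaving a fluorogenic AMC peptide substrate; inhibitor potency from loss of enzyme activity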
T4 sequence (P00748 whole entry): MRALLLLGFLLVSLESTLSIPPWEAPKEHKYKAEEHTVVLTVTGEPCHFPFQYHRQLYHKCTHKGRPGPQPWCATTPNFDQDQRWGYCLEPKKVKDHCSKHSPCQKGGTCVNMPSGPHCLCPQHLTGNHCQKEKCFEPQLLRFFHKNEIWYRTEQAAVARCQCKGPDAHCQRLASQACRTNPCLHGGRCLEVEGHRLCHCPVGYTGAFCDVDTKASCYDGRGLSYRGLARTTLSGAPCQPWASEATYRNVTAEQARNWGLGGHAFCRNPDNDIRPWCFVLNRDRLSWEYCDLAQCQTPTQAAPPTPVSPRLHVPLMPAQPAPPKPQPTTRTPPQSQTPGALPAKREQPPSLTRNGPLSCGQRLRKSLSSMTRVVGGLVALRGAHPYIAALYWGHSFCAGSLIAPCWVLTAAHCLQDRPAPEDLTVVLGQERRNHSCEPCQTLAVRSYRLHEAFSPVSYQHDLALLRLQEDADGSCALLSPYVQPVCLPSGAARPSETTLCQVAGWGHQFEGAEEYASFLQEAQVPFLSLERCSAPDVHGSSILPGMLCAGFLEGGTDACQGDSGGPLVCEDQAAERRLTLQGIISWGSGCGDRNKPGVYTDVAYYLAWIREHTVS

Protein skinhead-1 = target: T5, Protein skinhead-1 (Caenorhabditis elegans, UniProt P34707); assay type: functional
T5 sequence (P34707 whole entry): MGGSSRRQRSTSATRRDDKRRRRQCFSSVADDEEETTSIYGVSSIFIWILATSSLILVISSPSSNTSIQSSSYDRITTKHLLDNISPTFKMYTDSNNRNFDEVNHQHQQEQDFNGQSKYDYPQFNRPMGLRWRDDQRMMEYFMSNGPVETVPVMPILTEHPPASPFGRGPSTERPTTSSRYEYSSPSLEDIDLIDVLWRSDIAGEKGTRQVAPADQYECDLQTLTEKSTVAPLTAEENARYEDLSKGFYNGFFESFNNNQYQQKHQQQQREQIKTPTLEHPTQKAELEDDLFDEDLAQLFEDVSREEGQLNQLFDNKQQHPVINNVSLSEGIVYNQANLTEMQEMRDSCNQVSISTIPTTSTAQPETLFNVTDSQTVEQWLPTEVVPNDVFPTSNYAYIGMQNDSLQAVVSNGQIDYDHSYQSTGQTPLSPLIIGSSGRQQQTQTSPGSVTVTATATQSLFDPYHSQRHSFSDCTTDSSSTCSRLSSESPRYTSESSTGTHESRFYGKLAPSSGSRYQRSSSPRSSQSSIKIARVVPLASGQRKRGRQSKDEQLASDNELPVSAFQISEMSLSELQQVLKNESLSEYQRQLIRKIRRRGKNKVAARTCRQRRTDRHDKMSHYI

INS1 = assay: protection of INS-1E cells from cytokine death, dose response, ATP luminescence, dry powder (AID 488844); assay type: functional, cell-based; settings: Rattus norvegicus
[10] = target: T6, Tyrosine-protein phosphatase non-receptor type 7 (Homo sapiens, UniProt P35236); assay: SAR analysis of chemical inhibitors of HePTP using a Fluorescent assay - Set 2. [Related pubchem assays (depositor defined):AID1059, AID1077, AID1661, AID2085, AID521]; assay type: functional
T6 sequence (P35236 whole entry): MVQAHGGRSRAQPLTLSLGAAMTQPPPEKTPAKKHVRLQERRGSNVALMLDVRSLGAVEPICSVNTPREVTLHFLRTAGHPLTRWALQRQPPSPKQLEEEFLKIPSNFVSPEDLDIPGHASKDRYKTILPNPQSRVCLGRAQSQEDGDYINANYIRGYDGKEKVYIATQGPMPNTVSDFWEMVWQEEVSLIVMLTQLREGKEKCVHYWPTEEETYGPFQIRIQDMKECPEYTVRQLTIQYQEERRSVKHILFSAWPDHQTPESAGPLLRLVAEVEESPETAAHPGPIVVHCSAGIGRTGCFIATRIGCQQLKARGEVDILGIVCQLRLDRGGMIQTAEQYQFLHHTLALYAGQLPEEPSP

[11] = target: Dual specificity protein phosphatase 3 (Homo sapiens, UniProt P51452); assay: SAR VHR1 Fluorescent Assay for In Vitro dose response studies Set 2. [Related pubchem assays (depositor defined):AID1654, AID1661, AID1878]; assay type: functional
Dual specificity protein phosphatase 3, sequence (P51452 whole entry): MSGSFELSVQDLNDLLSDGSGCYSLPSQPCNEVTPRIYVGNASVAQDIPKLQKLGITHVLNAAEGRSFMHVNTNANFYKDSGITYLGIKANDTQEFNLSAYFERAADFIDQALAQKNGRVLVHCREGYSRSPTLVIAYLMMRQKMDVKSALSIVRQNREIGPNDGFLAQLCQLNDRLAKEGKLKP

[12] = target: Peroxisome proliferator-activated receptor gamma/Nuclear receptor coactivator 1 (Homo sapiens, UniProt P37231); assay: (§1) TR-FRET dose response biochemical High Throughput Screening assay for agonists of the steroid receptor coactivator 1 (SRC-1) recruitment by the peroxisome proliferator-activated receptor gamma (PPAR gamma): non-selective agonists. [Related pubchem assays (depositor defined):AID1300, AID1808, AID504735, AID631]; assay type: protein assay
[13] = target: Peroxisome proliferator-activated receptor gamma/Nuclear receptor coactivator 3 (Homo sapiens, UniProt P37231); assay: as §1, with “3 (SRC-3)” for “1 (SRC-1)”, “assays: 1301 (Confirmation screen.), 1048 (Primary screen.)]” for “assays (depositor defined):AID1300, AID1808, AID504735, AID631]”; assay type: functional
[14] = target: Peroxisome proliferator-activated receptor gamma/Nuclear receptor coactivator 2 (Homo sapiens, UniProt P37231); assay: TR-FRET dose response biochemical High Throughput Screening assay for agonists of the steroid receptor coactivator 2 (SRC-2) recruitment by the peroxisome proliferator-activated receptor gamma (PPAR gamma): non-selective agonists. [Related pubchem assays: 1297, 1032 ]; assay type: functional
Cytochrome P450 2C19 = Cytochrome P450 2C19 (Homo sapiens, UniProt P33261); assay: Cytochrome panel assay with activity outcomes. Panel member name: p450-cyp2c19 Compounds with AC50 equal or less than 10 uM are considered active; assay type: functional; settings: read-out: AC50
Cytochrome P450 2C19, sequence (P33261 whole entry): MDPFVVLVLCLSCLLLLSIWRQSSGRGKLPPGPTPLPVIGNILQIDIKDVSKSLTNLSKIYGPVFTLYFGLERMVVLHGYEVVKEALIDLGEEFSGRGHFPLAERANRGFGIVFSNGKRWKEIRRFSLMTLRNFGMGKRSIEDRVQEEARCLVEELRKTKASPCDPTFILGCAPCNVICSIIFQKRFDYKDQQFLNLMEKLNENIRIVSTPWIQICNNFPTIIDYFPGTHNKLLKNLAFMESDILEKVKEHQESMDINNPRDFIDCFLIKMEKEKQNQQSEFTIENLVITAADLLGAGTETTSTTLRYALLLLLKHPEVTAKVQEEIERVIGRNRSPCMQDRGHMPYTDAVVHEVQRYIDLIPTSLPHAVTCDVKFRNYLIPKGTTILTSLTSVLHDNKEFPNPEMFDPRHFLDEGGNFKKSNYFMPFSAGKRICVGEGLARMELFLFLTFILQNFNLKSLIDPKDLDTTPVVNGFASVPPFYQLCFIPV

[15] = target: DNA dC->dU-editing enzyme APOBEC-3A (Homo sapiens, UniProt P31941); assay: Dose Response confirmation of small molecule APOBEC3A DNA Deaminase Inhibitors via a fluorescence-based single-stranded DNA deaminase assay. [Related pubchem assays (depositor defined):AID493011, AID493024]; assay type: functional
DNA dC->dU-editing enzyme APOBEC-3A, sequence (P31941 whole entry): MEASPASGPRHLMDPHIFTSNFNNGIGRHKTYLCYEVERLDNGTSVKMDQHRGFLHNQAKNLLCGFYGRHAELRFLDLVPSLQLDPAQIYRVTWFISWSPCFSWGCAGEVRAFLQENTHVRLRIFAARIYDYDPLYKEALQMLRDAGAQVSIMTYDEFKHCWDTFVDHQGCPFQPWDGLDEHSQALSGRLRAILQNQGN

[16] = target: DNA dC->dU-editing enzyme APOBEC-3G (Homo sapiens, UniProt Q9HC16); assay type: functional;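 note: Dose-response counterscreen measuring inhibition of APOBEC3G DNA deaminase activity, run while confirming APOBEC3A inhibitors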
DNA dC->dU-editing enzyme APOBEC-3G, sequence (Q9HC16 whole entry, the tested form may be a part): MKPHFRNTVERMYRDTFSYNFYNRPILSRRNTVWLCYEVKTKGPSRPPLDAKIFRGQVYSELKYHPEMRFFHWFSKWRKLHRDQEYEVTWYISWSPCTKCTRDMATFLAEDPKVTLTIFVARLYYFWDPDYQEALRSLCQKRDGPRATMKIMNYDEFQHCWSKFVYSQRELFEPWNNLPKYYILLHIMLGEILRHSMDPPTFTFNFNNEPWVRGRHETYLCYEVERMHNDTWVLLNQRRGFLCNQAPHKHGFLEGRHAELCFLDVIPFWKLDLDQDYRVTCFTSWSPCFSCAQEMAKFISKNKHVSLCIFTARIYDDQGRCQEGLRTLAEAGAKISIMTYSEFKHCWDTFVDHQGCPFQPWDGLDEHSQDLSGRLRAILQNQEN

[17] = target: T7, Carboxy-terminal domain RNA polymerase II polypeptide A small phosphatase 1 (Homo sapiens, UniProt Q9GZU7); assay: inhibitors of CTDSP1, concentration-response testing, biochemical assay, absorbance-based, actives from ultra-high-throughput screening (AID 540297); assay type: functional
T7 sequence (Q9GZU7 whole entry): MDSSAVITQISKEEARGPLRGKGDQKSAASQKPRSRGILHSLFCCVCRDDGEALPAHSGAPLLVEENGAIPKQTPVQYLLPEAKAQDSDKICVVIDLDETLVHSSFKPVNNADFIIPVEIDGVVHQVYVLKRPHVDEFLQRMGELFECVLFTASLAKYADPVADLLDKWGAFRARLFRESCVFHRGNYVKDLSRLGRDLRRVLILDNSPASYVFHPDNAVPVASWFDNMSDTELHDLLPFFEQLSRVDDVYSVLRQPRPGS

Intestinal-type alkaline phosphatase (Mus musculus, UniProt P24822), sequence (P24822 whole entry): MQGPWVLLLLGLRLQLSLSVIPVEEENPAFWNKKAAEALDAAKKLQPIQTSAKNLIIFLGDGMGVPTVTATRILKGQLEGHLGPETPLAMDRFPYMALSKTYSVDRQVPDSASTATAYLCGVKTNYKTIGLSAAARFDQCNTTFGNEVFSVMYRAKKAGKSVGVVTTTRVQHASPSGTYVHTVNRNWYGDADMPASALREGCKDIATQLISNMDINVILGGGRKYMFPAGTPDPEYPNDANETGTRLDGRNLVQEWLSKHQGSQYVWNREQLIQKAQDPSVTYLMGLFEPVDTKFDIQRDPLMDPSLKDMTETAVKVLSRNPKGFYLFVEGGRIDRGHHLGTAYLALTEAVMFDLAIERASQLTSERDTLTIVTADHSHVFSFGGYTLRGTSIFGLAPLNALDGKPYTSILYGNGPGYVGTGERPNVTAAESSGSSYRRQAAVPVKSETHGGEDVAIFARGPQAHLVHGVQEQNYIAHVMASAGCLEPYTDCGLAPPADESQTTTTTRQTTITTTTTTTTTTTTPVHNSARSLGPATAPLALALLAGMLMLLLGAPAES

CCN(C(=O)CCN1C(=O)/C(=C/c2ccccc2)SC1=S)C1CCS(=O)(=O)C1 (stereo unspecified)
IC50 (Vero [1]): > 25 µM (active) | CC50 (Vero [2]): 22.1 µM (active)

COc1cc(/C=N/NC(=O)c2cc(O)cc(O)c2)ccc1OC(=O)c1ccccc1
IC50 [3]: 4.43 µM (active) | IC50 [4]: 26.8 µM (active) | IC50 [5]: 77.1 µM (active) | IC50 (Albumin): > 94.1 µM (inactive)

COc1ccc(C(=O)N(CN2CCCC2=O)c2ccccc2OC)cc1OC
IC50 [6]: > 100 µM (inactive) | IC50 [7]: > 100 µM (not active)

O=C(NNC(=O)c1cc2cc(Br)ccc2oc1=O)c1ccc(O)cc1O
IC50 [3]: 12.9 µM (active) | IC50 [4]: > 100 µM (inactive) | IC50 [5]: > 100 µM (inactive) | IC50 (H9c2): > 79 µM (inactive) | IC50 [8]: 16.3 µM (active) | IC50 [9]: 44.7 µM (active)

CCn1nc(C)c(CNC(=O)c2cc(COc3ccc(F)cc3Cl)on2)c1C
IC50 (Coagulation factor XII): > 50 µM (inactive)

Clc1ccccc1CN1CCN(CCCc2ccccc2)CC1
IC50 (Coagulation factor XII): > 50 µM (inactive)

Clc1ccc(-c2nc3cc(CN4CCCCC4)ccc3o2)cc1
IC50 (Vero [1]): > 25 µM (active) | CC50 (Vero [2]): > 25 µM (active) | IC50 (Protein skinhead-1): 4.15 µM (active)

COc1ccc(S(=O)(=O)N(C)C[C@@H]2Oc3c(NC(=O)c4cc(C)nn4C)cccc3C(=O)N([C@@H](C)CO)C[C@H]2C)cc1
AC50 (INS1): > 260 µM (inactive)

COc1ccc(OC)c(C(=S)NCc2ccc(C(F)(F)F)cc2)c1
IC50 [10]: 38.4 µM (active) | IC50 [11]: 48.4 µM (active)

Cn1c(=O)cc(SCC(=O)NCCCN2CCOCC2)c2ccc(Cl)cc21
EC50 [12]: > 79.4 µM (inactive) | EC50 [13]: > 79.4 µM (not active) | EC50 [14]: > 79.4 µM (not active) | AC50 (Cytochrome P450 2C19): 10 µM (inconclusive)

Cc1cc(-c2ccccc2)nc2c(Br)c(C(=O)O)nn12
IC50 [15]: 25.2 µM (active) | IC50 [16]: 37.7 µM (active) | IC50 [17]: 2.44 µM (active)

Cc1ccn(C)c(=N)c1
IC50 [15]: 7.71 µM (active) | IC50 [16]: 7.58 µM (active)
